Measurements as given in PubChem BioAssay AID330 (DTP/NCI, 2004).
Several values for one entry are separate records, joined by “and”; a condition that tells them apart may be missing. Equal entries are not always repeated. Inconclusive results and toxic doses are left out. How the source made its calls: active means survival T/C of 150% or more; inactive means T/C below 125% in these data. Peptide text beside a SMILES is read from it. * marks the point of attachment. For = O=C*

Test system: P388 leukemia ip, CD2F1 mice, survival T/C
Assay: NCI In Vivo Anticancer Drug Screen. Data for tumor model P388 Leukemia (intraperitoneal) in CD2F1 (CDF1) mice
Details: endpoint: median survival time, higher = longer survival
How it was run: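 Mice carrying the transplanted tumor received test compound or vehicle. Survival was recorded in each group, and the value is the treated-group measurement divided by that of the vehicle-treated control group.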

[1] = dose: 12.5 mg/kg/injection, schedule: Q01DX009 (ip), vehicle: Klucel (hydroxypropylcellulose) (HPC)
[2] = dose: 25.0 mg/kg/injection, schedule: Q01DX009 (ip), vehicle: Klucel (hydroxypropylcellulose) (HPC)
[3] = dose: 50.0 mg/kg/injection, schedule: Q01DX009 (ip), vehicle: Klucel (hydroxypropylcellulose) (HPC)
[4] = dose: 100.0 mg/kg/injection, schedule: Q01DX009 (ip), vehicle: Klucel (hydroxypropylcellulose) (HPC)
[5] = dose: 200.0 mg/kg/injection, schedule: Q01DX009 (ip), vehicle: Klucel (hydroxypropylcellulose) (HPC)
[6] = dose: 50.0 mg/kg/injection, schedule: Q01DX005 (ip), vehicle: Klucel (hydroxypropylcellulose) (HPC)
[7] = dose: 100.0 mg/kg/injection, schedule: Q01DX005 (ip), vehicle: Klucel (hydroxypropylcellulose) (HPC)
[8] = dose: 200.0 mg/kg/injection, schedule: Q01DX005 (ip), vehicle: Klucel (hydroxypropylcellulose) (HPC)
[9] = dose: 50.0 mg/kg/injection, schedule: Q01DX009 (ip), vehicle: saline with Tween-80
[10] = dose: 100.0 mg/kg/injection, schedule: Q01DX009 (ip), vehicle: saline with Tween-80
[11] = dose: 200.0 mg/kg/injection, schedule: Q01DX009 (ip), vehicle: saline with Tween-80
[12] = dose: 60.0 mg/kg/injection, schedule: Q01DX005 (ip), vehicle: saline with Tween-80
[13] = dose: 120.0 mg/kg/injection, schedule: Q01DX005 (ip), vehicle: saline with Tween-80
[14] = dose: 240.0 mg/kg/injection, schedule: Q01DX005 (ip), vehicle: saline with Tween-80
[15] = dose: 12.5 mg/kg/injection, schedule: Q01DX005 (ip), vehicle: saline
[16] = dose: 25.0 mg/kg/injection, schedule: Q01DX005 (ip), vehicle: saline
[17] = dose: 50.0 mg/kg/injection, schedule: Q01DX005 (ip), vehicle: saline

Measured: T/C

COC(=O)/C=C/c1c[nH]c2nccnc12
inactive: [1] 98 % of control | [2] 100 % of control | [3] 102 % of control | [4] 100 % of control | [5] 98 % of control

COc1c2ccc(-c3ccccc3)oc-2cc(=O)c1C
inactive: dose: 2.0 mg/kg/injection, schedule: Q01DX005 (ip), vehicle: Klucel + Tween-80 100 % of control | dose: 4.0 mg/kg/injection, schedule: Q01DX005 (ip), vehicle: Klucel + Tween-80 100 % of control | dose: 8.0 mg/kg/injection, schedule: Q01DX005 (ip), vehicle: Klucel + Tween-80 109 % of control | dose: 16.0 mg/kg/injection, schedule: Q01DX005 (ip), vehicle: Klucel + Tween-80 92 % of control

O=C(O)c1cc(=O)cc(-c2ccccc2)o1
inactive: [6] 98 % of control | [7] 97 % of control | [8] 101 % of control

COc1ccc(C2(C)C=C(C)C=C(C)C2=O)cc1 (stereo not drawn)
inactive: [9] 100 % of control | [10] 106 % of control | [11] 100 % of control

O=C1C(Sc2ccccc2)CCCC1Sc1ccccc1 (stereo not drawn)
inactive: [2] 109 % of control | [3] 100 % of control | [4] 98 % of control

COC(=O)C(Cc1ccc(O)cc1)NC(=O)C(Cc1ccccc1)NC(C)=O (stereo not drawn) (Ac-Phe-Tyr-OMe; configuration not given here)
inactive: [6] 92 % of control | [7] 97 % of control | [8] 88 % of control

CC1=CC(=O)CCC12CCOC2=O (stereo not drawn)
inactive: [12] 104 % of control | [13] 101 % of control | [14] 101 % of control

CC(=O)N1C=CC(=C2C=CN(C(C)=O)C=C2)C=C1
inactive: dose: 5.0 mg/kg/injection, schedule: Q01DX009 (ip), vehicle: saline 100 % of control | dose: 10.0 mg/kg/injection, schedule: Q01DX009 (ip), vehicle: saline 88 % of control | dose: 20.0 mg/kg/injection, schedule: Q01DX009 (ip), vehicle: saline 103 % of control

C/C=C/C1OC(O)(C(C)C(O)C(C)C2OC(=O)/C(OC)=C/C(C)=C/C(C)C(O)C(CC)C(O)C(C)C/C(C)=C/C=C/C2OC)CC(OC(=O)/C=C/C(=O)NC2=C(O)CCC2=O)C1C (stereo not drawn)
inactive: dose: 0.75 mg/kg/injection, schedule: Q01DX005 (ip), vehicle: Klucel (hydroxypropylcellulose) (HPC) 118 % of control | dose: 1.5 mg/kg/injection, schedule: Q01DX005 (ip), vehicle: Klucel (hydroxypropylcellulose) (HPC) 110 % of control | dose: 3.0 mg/kg/injection, schedule: Q01DX005 (ip), vehicle: Klucel (hydroxypropylcellulose) (HPC) 108 % of control | dose: 6.0 mg/kg/injection, schedule: Q01DX005 (ip), vehicle: Klucel (hydroxypropylcellulose) (HPC) 110 % of control

C=CCOC(N)=O
inactive: [10] 100 % of control | [11] 101 % of control | dose: 400.0 mg/kg/injection, schedule: Q01DX009 (ip), vehicle: saline with Tween-80 101 % of control

C=C(C)[C@@H]1CC[C@]2(C(=O)OC)CC[C@]3(C)[C@H](CC[C@@H]4[C@@]5(C)CC[C@H](O)C(C)(C)[C@@H]5CC[C@]43C)[C@@H]12
inactive: [2] 107 % of control | [3] 102 % of control | [4] 98 % of control | [5] 102 % of control

CN=C(N)N/N=C(\C)c1ccc2c(c1)Cc1cc(Br)ccc1-2
inactive: dose: 6.25 mg/kg/injection, schedule: Q04DX002 (ip), vehicle: saline with Tween-80 102 % of control | dose: 12.5 mg/kg/injection, schedule: Q04DX002 (ip), vehicle: saline with Tween-80 105 % of control | dose: 25.0 mg/kg/injection, schedule: Q04DX002 (ip), vehicle: saline with Tween-80 105 % of control and 124 % of control | dose: 50.0 mg/kg/injection, schedule: Q04DX002 (ip), vehicle: saline with Tween-80 98 % of control and 101 % of control

CCCC(=O)Nc1ccc([N+](=O)[O-])cc1OC
inactive: dose: 100.0 mg/kg/injection, schedule: Q04DX003 (ip), vehicle: saline with Tween-80 88 % of control | dose: 200.0 mg/kg/injection, schedule: Q04DX003 (ip), vehicle: saline with Tween-80 100 % of control | dose: 400.0 mg/kg/injection, schedule: Q04DX003 (ip), vehicle: saline with Tween-80 100 % of control

Cc1ccc(NC(=O)Oc2cc(C)c(Cl)cc2C)c([N+](=O)[O-])c1
inactive: [9] 95 % of control | [10] 87 % of control | [11] 91 % of control

COc1cc2nc(C)[n+]3nc([O-])ccc3c2cc1OC
inactive: dose: 60.0 mg/kg/injection, schedule: Q01DX005 (ip), vehicle: suspension in saline 112 % of control | dose: 120.0 mg/kg/injection, schedule: Q01DX005 (ip), vehicle: suspension in saline 104 % of control | dose: 240.0 mg/kg/injection, schedule: Q01DX005 (ip), vehicle: suspension in saline 108 % of control

COc1c(OC2OC(CO)C(O)C(O)C2O)cc2c(c1OC)-c1ccc(OC)c(=O)cc1C(NC(C)=O)CC2 (stereo not drawn)
inactive: [15] 108 % of control | [16] 106 % of control | [17] 117 % of control and 121 % of control

c1cc2cc(C3=NCCN3)[nH]c2cc1C1=NCCN1
inactive: [15] 98 % of control | [16] 103 % of control | [17] 99 % of control

C/C(=N\NC(=S)N1CCN(c2ccccn2)CC1)c1ncccn1
inactive: dose: 3.13 mg/kg/injection, schedule: Q01DX005 (ip), vehicle: saline with Tween-80 115 % of control | dose: 6.25 mg/kg/injection, schedule: Q01DX005 (ip), vehicle: saline with Tween-80 122 % of control and 123 % of control | dose: 12.5 mg/kg/injection, schedule: Q01DX005 (ip), vehicle: saline with Tween-80 95 % of control

CCOC(=O)c1cc(-c2ccccc2)c(OC)c(=O)nc1-c1ccccc1
inactive: dose: 25.0 mg/kg/injection, schedule: Q01DX005 (ip), vehicle: saline with Tween-80 100 % of control | dose: 50.0 mg/kg/injection, schedule: Q01DX005 (ip), vehicle: saline with Tween-80 100 % of control | dose: 100.0 mg/kg/injection, schedule: Q01DX005 (ip), vehicle: saline with Tween-80 100 % of control | dose: 200.0 mg/kg/injection, schedule: Q01DX005 (ip), vehicle: saline with Tween-80 112 % of control

CC(C)N(C(C)C)p1n(C(C)(C)C)n1C(C)(C)C
inactive: dose: 12.5 mg/kg/injection, schedule: Q01DX005 (ip), vehicle: Klucel (hydroxypropylcellulose) (HPC) 108 % of control | dose: 25.0 mg/kg/injection, schedule: Q01DX005 (ip), vehicle: Klucel (hydroxypropylcellulose) (HPC) 117 % of control | [6] 110 % of control

Cc1cc2nc(N)[nH]c2cc1C
inactive: dose: 6.25 mg/kg/injection, schedule: Q01DX009 (ip), vehicle: saline with Tween-80 102 % of control | dose: 12.5 mg/kg/injection, schedule: Q01DX009 (ip), vehicle: saline with Tween-80 103 % of control | dose: 25.0 mg/kg/injection, schedule: Q01DX009 (ip), vehicle: saline with Tween-80 105 % of control | [9] 103 % of control

CCCCC1(C#Cc2ccccc2)Sc2ccccc2N1C (stereo not drawn)
inactive: [12] 98 % of control | [13] 101 % of control | [14] 107 % of control

O=S(=O)(c1ccccn1)c1nc2ccccc2s1
inactive: [12] 94 % of control | [13] 90 % of control | [14] 94 % of control

COc1cccc(C=Nc2ccccc2O)c1O.[O]=[V]
inactive: dose: 6.25 mg/kg/injection, schedule: Q01DX009 (ip), vehicle: Klucel (hydroxypropylcellulose) (HPC) 98 % of control and 107 % of control | [1] 106 % of control and 115 % of control | [2] 100 % of control and 118 % of control | [3] 91 % of control

Cc1nc2scc(-c3ccccc3)n2c(=O)c1CN1CCCCC1
inactive: dose: 37.5 mg/kg/injection, schedule: Q04DX002 (ip), vehicle: Klucel (hydroxypropylcellulose) (HPC) 103 % of control | dose: 75.0 mg/kg/injection, schedule: Q04DX002 (ip), vehicle: Klucel (hydroxypropylcellulose) (HPC) 106 % of control | dose: 150.0 mg/kg/injection, schedule: Q04DX002 (ip), vehicle: Klucel (hydroxypropylcellulose) (HPC) 95 % of control

CSCCC(NC=O)C(=O)NC(C(=O)O)C(C)C (stereo not drawn) (For-Met-Val-OH; configuration not given here)
inactive: [6] 101 % of control | [7] 97 % of control | [8] 101 % of control

COCCCN1C(=O)/C(=C/c2ccccn2)SC1=S
inactive: dose: 50.0 mg/kg/injection, schedule: Q01DX009 (ip), vehicle: saline 97 % of control | dose: 100.0 mg/kg/injection, schedule: Q01DX009 (ip), vehicle: saline 96 % of control | dose: 200.0 mg/kg/injection, schedule: Q01DX009 (ip), vehicle: saline 96 % of control

C[Si](C)(C)N1C(=O)c2ccccc2C1=O
inactive: [3] 100 % of control | [4] 115 % of control | [5] 107 % of control
